These results are taken from the C3SDB collision cross section collection.

Values joined by “and” are separate entries in the source; they are usually repeats but may differ in a detail not shown here. Identical values can stand only once.

For the first data set the following is noted: [M+H-H2O]+; instrument: TW; calibrated with polyalanine and drug standards.
Turning to `COc1ccc2c(c1)OC[C@@H](Cc1ccc(OC)c(OC)c1)[C@H]2O` [TETRAHYDROSAPPANONE A TRIMETHYL ETHER], the “collision cross section (N2)” value is listed as 172 Å².
On the same count and under the same terms, as for `COc1cc([C@@H]2c3cc4c(c(O)c3C[C@H]3COC(=O)[C@@H]32)OCO4)cc(OC)c1OC` [beta-PELTATIN], the figure is 189 Å².

The same data set, now with this note: [M+H]+; instrument: TW; calibrated with polyalanine and drug standards.
Turning to `Cc1ncc(CSSCc2cnc(C)c(O)c2CO)c(CO)c1O` [PYRITINOL], the “collision cross section (N2)” value stood at 173.4 Å².
With `O=c1c(O)c(-c2ccc(O)c(O)c2)oc2cc(O)cc(O)c12` [QUERCETIN], the “collision cross section (N2)” value was 163.4 Å².
As for `O=C(O)c1cccnc1C(=O)O` [QUINOLINIC ACID], the “collision cross section (N2)” value stood at 130.2 Å².
The same measure, in the same setting: as for `Cc1c(NC(C)C)c(=O)n(-c2ccccc2)n1C` [RAMIFENAZONE], the figure is 156.5 Å².
Take `COc1ccccc1OCC(O)CN1CCN(CC(=O)Nc2c(C)cccc2C)CC1` (centres undefined) [RANOLAZINE]: the “collision cross section (N2)” value turned out to be 205.2 Å².
With `COC(=O)[C@H]1[C@H]2C[C@@H]3c4[nH]c5cc(OC)ccc5c4CCN3C[C@H]2C[C@@H](OC(=O)c2cc(OC)c(OC)c(OC)c2)[C@@H]1OC` [RESERPINE], the “collision cross section (N2)” value was 247.3 Å².
Turning to `COc1ccc(/C=C/c2cc(O)cc(O)c2)cc1` [RESVERATROL 4'-METHYL ETHER], the “collision cross section (N2)” value is 157.3 Å².
Same read-out and setting: as for `COc1ccc(-c2coc3c(O)c(OC)ccc3c2=O)cc1` [RETUSIN 7-METHYL ETHER], the figure is 164.1 Å²; as for `COc1cc(O)c2c(=O)c(OC)c(-c3ccc(OC)c(OC)c3)oc2c1` [RETUSIN], 180.8 Å².
On to `C[C@@H]1O[C@@H](O[C@H]2[C@H](Oc3cc(O)c4c(=O)cc(-c5ccc(O)cc5)oc4c3)O[C@H](CO)[C@@H](O)[C@@H]2O)[C@H](O)[C@H](O)[C@H]1O` [RHOIFOLIN], for which the “collision cross section (N2)” value came out at 231.9 Å².
`CO[C@H]1/C=C/O[C@@]2(C)Oc3c(C)c(O)c4c(O)c(c5c(nc6cc(C)ccn65)c4c3C2=O)NC(=O)/C(C)=C\C=C\[C@H](C)[C@H](O)[C@@H](C)[C@@H](O)[C@@H](C)[C@H](OC(C)=O)[C@@H]1C` [RIFAXIMIN]: the “collision cross section (N2)” value worked out at 267.8 Å².
For the molecule `CN(CCOc1ccc(CC2SC(=O)NC2=O)cc1)c1ccccn1` (centres undefined) [ROSIGLITAZONE], the “collision cross section (N2)” value was found to be 172.6 Å².
As to `C=C(C)[C@H]1Cc2c(ccc3c2O[C@@H]2COc4cc(OC)c(OC)cc4[C@@H]2C3=O)O1` [ROTENONE], the “collision cross section (N2)” value is 193.2 Å².
With `O=[N+]([O-])c1cc([As](=O)(O)O)ccc1O` [ROXARSONE], the “collision cross section (N2)” value is reported as 145.5 Å².
For the molecule `O=C(Oc1ccccc1C(=O)O)c1ccccc1O` [SALSALATE], the “collision cross section (N2)” value is 151.3 Å².
With `COc1cc2c(cc1OC)C(C)NCC2` (centres undefined) [SALSOLIDINE], the “collision cross section (N2)” value is 150.9 Å².
`C[C@@H]1CC[C@@]2(NC1)O[C@H]1C[C@H]3[C@@H]4CC=C5C[C@@H](O)CC[C@]5(C)[C@H]4CC[C@]3(C)[C@H]1[C@@H]2C` [SOLASODINE]: the “collision cross section (N2)” value worked out at 207.8 Å².
Consider `CO[C@@H]1[C@@H](OC2OC(C)C(OC3CC(C)(O)C(O)C(C)O3)C(N(C)C)C2O)[C@@H](CC=O)C[C@@H](C)[C@@H](OC2CCC(N(C)C)C(C)O2)/C=C/C=C/C[C@@H](C)OC(=O)C[C@H]1O` (some centres undefined) [SPIRAMYCIN], for which the “collision cross section (N2)” value is 317 Å².
On the same count and under the same terms, as for `C[C@]12CC[C@H]3[C@@H](CC[C@]4(O)C[C@@H](O)CC[C@]34C=O)[C@@]1(O)CC[C@@H]2C1=CC(=O)OC1` [STROPHANTHIDIN], the figure is 196.7 Å².
For `CC(=O)NS(=O)(=O)c1ccc(N)cc1` [SULFACETAMIDE], the “collision cross section (N2)” value is listed as 146.9 Å².
The same measure, in the same setting: as for `Cc1cc(C)nc(NS(=O)(=O)c2ccc(N)cc2)n1` [SULFAMETHAZINE], the figure is 161.7 Å².
Consider `Nc1ccc(S(=O)(=O)Nc2nccs2)cc1` [SULFATHIAZOLE], for which the “collision cross section (N2)” value stood at 150.8 Å².
Still for that read-out and setting: the value for `O=C1C(CCS(=O)c2ccccc2)C(=O)N(c2ccccc2)N1c1ccccc1` (centres undefined) [SULFINPYRAZONE] was 193.5 Å².
Regarding `Cc1noc(NS(=O)(=O)c2ccc(N)cc2)c1C` [SULFISOXAZOLE], the “collision cross section (N2)” value amounted to 159.1 Å².
In the case of `CCN1CCCC1CNC(=O)c1cc(S(N)(=O)=O)ccc1OC` (centres undefined) [SULPIRIDE], the “collision cross section (N2)” value is 183.3 Å².
In the case of `CN1CC(=O)N2[C@H](c3ccc4c(c3)OCO4)c3[nH]c4ccccc4c3C[C@@H]2C1=O` [TADALAFIL], the “collision cross section (N2)” value turned out to be 188.7 Å².
On the same count and under the same terms, the value for `COc1ccc(-c2cc(=O)c3c(OC)c(OC)c(OC)c(OC)c3o2)cc1` [TANGERITIN] was 182 Å².
On to `CN1C(C(=O)Nc2ccccn2)=C(O)c2sccc2S1(=O)=O` [TENOXICAM], for which the “collision cross section (N2)” value is given as 169.8 Å².
Consider `C[C@]12CC[C@H]3[C@@H](CCC4=CC(=O)CC[C@@]43C)[C@@H]1CC[C@@H]2O` [TESTOSTERONE], for which the “collision cross section (N2)” value is reported as 170.6 Å².
Consider `c1ccc(C2CN3CCSC3=N2)cc1` (centres undefined) [TETRAMIZOLE], for which the “collision cross section (N2)” value is listed as 144 Å².
With `CN1CCN(CC/C=C2/c3ccccc3Sc3ccc(S(=O)(=O)N(C)C)cc32)CC1` [THIOTHIXENE], the “collision cross section (N2)” value was 201.9 Å².
Turning to `CCN(CC)CCOc1ccc2c(c1)C(=O)c1cc(OCCN(CC)CC)ccc1-2` [TILORONE], the “collision cross section (N2)” value stood at 219.8 Å².
Regarding `Clc1ccc(C(Cn2ccnc2)OCc2ccsc2Cl)c(Cl)c1` (centres undefined) [TIOCONAZOLE], the “collision cross section (N2)” value is listed as 180.7 Å².
On the same count and under the same terms, the value for `Cc1ccc(S(=O)(=O)NC(=O)NN2CCCCCC2)cc1` [TOLAZAMIDE] was 173.3 Å²; that for `CCCCNC(=O)NS(=O)(=O)c1ccc(C)cc1` [TOLBUTAMIDE] was 161.9 Å².
With `CC(=O)Oc1ccc(/C=C/c2cc(OC(C)=O)cc(OC(C)=O)c2)cc1` [TRIACETYLRESVERATROL], the “collision cross section (N2)” value is given as 171.1 Å².
Same read-out and setting: as for `CC1(C)O[C@@H]2C[C@H]3[C@@H]4CCC5=CC(=O)C=C[C@]5(C)[C@@]4(F)[C@@H](O)C[C@]3(C)[C@]2(C(=O)CO)O1` [TRIAMCINOLONE ACETONIDE], the figure is 197.1 Å²; as for `Nc1nc(N)c2nc(-c3ccccc3)c(N)nc2n1` [TRIAMTERENE], 155.4 Å².
Same read-out and setting: the value for `CC1(C)C2C[C@@H](O)[C@]3(C)C(CC[C@@]4(C)[C@H](c5ccoc5)OC(=O)[C@H]5O[C@]543)[C@@]2(C)[C@@H](O)C[C@H]1O` (some centres undefined) [TRIDESACETOXYKHIVORIN] was 201.5 Å².
On to `COc1cc(Cc2cnc(N)nc2N)cc(OC)c1OC` [TRIMETHOPRIM], for which the “collision cross section (N2)” value came to 171.2 Å².
In the case of `C[C@H](CCC(=O)O)[C@H]1CC[C@H]2[C@@H]3CC[C@@H]4CCCC[C@]4(C)[C@H]3CC[C@]12C` [URSOCHOLANIC ACID], the “collision cross section (N2)” value is on record as 169.3 Å².
As for `CCC(C)C(=O)O[C@@H]1C[C@@]2(C)[C@H](c3ccoc3)OC(=O)CC23OC2(C)O[C@]14[C@]1(C)[C@@H](CC(=O)OC)C5(C)CC1(O)[C@](O)(C5OC(=O)C1(C)OC1C)[C@@H](OC(C)=O)[C@]34O2` (some centres undefined) [UTILIN], the “collision cross section (N2)” value is recorded as 252.5 Å².
Regarding `COc1c2ccoc2cc2oc(C)cc(=O)c12` [VISNAGIN], the “collision cross section (N2)” value is recorded as 139.1 Å².
Consider `CC1(C)C=Cc2cc3ccc(=O)oc3cc2O1` [XANTHYLETIN], for which the “collision cross section (N2)” value is on record as 148.3 Å².
Turning to `Cc1cccc(C)c1NC1=NCCCS1` [XYLAZINE], the “collision cross section (N2)” value worked out at 147.8 Å².
For the molecule `NC(Cc1ccc(F)cc1)C(=O)O` (centres undefined) [p-FLUOROPHENYLALANINE], the “collision cross section (N2)” value is given as 141.1 Å².

The same data set, now with this note: [M+Na]+; instrument: TW; calibrated with polyalanine and drug standards.
In the case of `CCCCCCCCCCCC[C@@H](C(=O)O)[C@H](C)C(=O)O` [ROCCELLIC ACID], the “collision cross section (N2)” value was determined as 186.2 Å².
The same measure, in the same setting: the value for `OC[C@H]1O[C@H](O[C@]2(CCl)O[C@H](CCl)[C@@H](O)[C@@H]2O)[C@H](O)[C@@H](O)[C@H]1Cl` [SUCRALOSE] was 177.2 Å²; that for `C=CC[C@@H]1/C=C(\C)C[C@H](C)C[C@H](OC)[C@H]2O[C@@](O)(C(=O)C(=O)N3CCCC[C@H]3C(=O)O[C@H](/C(C)=C/[C@@H]3CC[C@@H](O)[C@H](OC)C3)[C@H](C)[C@@H](O)CC1=O)[C@H](C)C[C@@H]2OC` [TACROLIMUS] was 267 Å².

For the next data set the following is noted: [M+H]+; instrument: DT; single field, calibrated with ESI Low Concentration Tuning Mix (Agilent).
As for `Cn1cnc2c(ncn2[C@@H]2O[C@H](CO)[C@@H](O)[C@H]2O)c1=N` [1-METHYLADENOSINE], the “collision cross section (N2)” value was 160 Å² and 164.7 Å².
Regarding `CC(=O)c1ccc(O)cc1O` [2',4'-DIHYDROXYACETOPHENONE], the “collision cross section (N2)” value was determined as 127.2 Å².
Take `CC(C)(N)C(=O)O` [2-AMINOISOBUTYRATE]: the “collision cross section (N2)” value is 123.8 Å².
Consider `Nc1ccccc1O` [2-AMINOPHENOL], for which the “collision cross section (N2)” value was 118.3 Å² and 124.8 Å².

The same data set, now with this note: [M+Na]+; instrument: DT; single field, calibrated with ESI Low Concentration Tuning Mix (Agilent).
Take `Cn1cnc2c(ncn2[C@@H]2O[C@H](CO)[C@@H](O)[C@H]2O)c1=N` [1-METHYLADENOSINE]: the “collision cross section (N2)” value was 170.7 Å².
As to `O=C(O)C1=CC(=O)[C@@H](O)[C@H](O)C1` [3-DEHYDROSHIKIMATE], the “collision cross section (N2)” value is 149.1 Å².

The same data set, now with this note: [M-H]-; instrument: DT; single field, calibrated with ESI Low Concentration Tuning Mix (Agilent).
As to `Cn1cnc2c(ncn2[C@@H]2O[C@H](CO)[C@@H](O)[C@H]2O)c1=N` [1-METHYLADENOSINE], the “collision cross section (N2)” value is reported as 162.7 Å².
Take `CC(=O)c1ccc(O)cc1O` [2',4'-DIHYDROXYACETOPHENONE]: the “collision cross section (N2)” value is on record as 126.3 Å².
`O=c1cccc(O)[nH]1` [2,6-DIHYDROXYPYRIDINE]: the “collision cross section (N2)” value was found to be 113.8 Å².
Turning to `Nc1ccccc1O` [2-AMINOPHENOL], the “collision cross section (N2)” value is 118 Å².
The same measure, in the same setting: the value for `O=C(O)C(O)c1ccc(O)c(O)c1` (centres undefined) [3,4 DIHYDROXYMANDELATE] was 137.4 Å²; that for `O=C(O)C1=CC(=O)[C@@H](O)[C@H](O)C1` [3-DEHYDROSHIKIMATE] was 132 Å²; that for `OCc1cccc(O)c1` [3-HYDROXYBENZYL ALCOHOL] was 122.3 Å².
